Laboratory results: article PMC11396935, “Exploration of Compounds with 2-Phenylbenzo[d]oxazole Scaffold as Potential Skin-Lightening Agents through Inhibition of Melanin Biosynthesis and Tyrosinase Activity” (Molecules, 2024)
Entries after “also recorded” stand apart in the source; their conditions may differ.

Experiments:
[1] = ABTS radical cation scavenging assay; conditions: 100 μM
Description: For ABTS^+• scavenging experiments, ABTS^+• was generated by oxidizing ABTS using potassium persulfate. All test samples (Trolox [TR; positive material] and 1–15) were used at a final concentration of 100 μM. […] Both compounds share a common catechol structure. […] Similar results were obtained in the DPPH radical scavenging experiment. […] Compounds 4, 9, and 14, bearing a 4-hydroxy-3-methoxyphenyl, scavenged ABTS^+• moderately (23–51%).
3.15. 2,2′-Azino-bis(3-ethylbenzothiazoline-6-sulfonic Acid) (ABTS) Radical Cation Scavenging Assay
The effect of the 2-phenylbenzoxazole compounds 1–15 on radical scavenging was assessed using an ABTS assay, as previously reported. An ABTS aqueous solution (7 mM) was mixed with a K2S2O8 aqueous solution (2.45 mM) in equal volumes (each 20 mL) and incubated in the dark for 20 h at 25 °C to generate ABTS^+•. The ABTS^+• solution was then diluted with pure EtOH to adjust the absorbance of the solution to 0.7 ± 0.02 at 730 nm. The test samples (1–15 and Trolox [positive control]) were dissolved in a co-solvent of EtOH and DMSO (9:1, v/v) to make a 1 mM solution. The diluted ABTS^+• solution was mixed with the test sample solution at a volume ratio of 9:1 (90 μL:10 μL) and the mixture was stored for 2 min at 20 °C in the dark. The optical density was measured at 730 nm using an ELISA reader at 1 min intervals for 10 min. All test samples were used at a final concentration of 100 µM.
ABTS^+• radical scavenging activity (%) = [(ODcon − ODsam)/ODcon] × 100, where ODsam and ODcon represent the absorbances of the test sample and the control, respectively.

zebrafish larvae [2] = assay: Melanin content in zebrafish larvae; type: in vivo, zebrafish (Danio rerio); conditions: compound 8 0.025 mM; kojic acid 20 mM; treated 28 hpf, read 74 hpf
Description: (§1) . Zebrafish embryos obtained by natural mating were dechorionated at 24 hpf and treated with compound 8 (0.025 mM) or kojic acid (20 mM) at 28 hpf. After 46 h, the melanin content and tyrosinase activity were determined.
(§2) 3.13. Measurement of Melanin Content and Tyrosinase Activity in Zebrafish Larvae
(§3) The effects of the 2-phenylbenzo[d]oxazole compound 8 on the melanin content and tyrosinase activity in the zebrafish larvae were assessed using a previously defined procedure with minor modifications. To quantify the melanin content in the zebrafish larvae, zebrafish embryos were obtained through natural mating and operated in a similar manner to the in vivo depigmentation experiment (25 zebrafish embryos per well in a 24-well plate; dechorionation at 24 hpf; test sample treatment (8 [0.025 mM] and kojic acid [20 mM; positive control]) at 28 hpf). Melanin quantification and tyrosinase activity were quantified at 74 hpf. For melanin quantification, the zebrafish larvae were lysed in RIPA buffer (Biosesang, Gyeonggi-do, Korea) and homogenized using a sonicator. […] The absorbance was measured at 405 nm using a microplate reader. For the tyrosinase activity measurement, the supernatants were transferred to new Eppendorf tubes and the protein was quantified using a Pierce BCA protein assay kit, with the absorbance being measured at 570 nm using a microplate reader. […]

[3] = tested on: tyrosinase activity in zebrafish larvae; assay: Tyrosinase activity in zebrafish larvae; type: in vivo, zebrafish (Danio rerio); conditions: compound 8 0.025 mM; kojic acid 20 mM; treated 28 hpf, read 74 hpf
Description: as §1, §2, §3

zebrafish larvae [4] = assay: In vivo depigmentation experiment using zebrafish embryos
Description: Zebrafish embryos were used in this study. […] The zebrafish embryos were obtained through natural mating in our laboratory. The chorion of the zebrafish embryos was removed 24 h post-fertilization (hpf).
In Vivo Depigmentation Experiment Using Zebrafish Embryos
A depigmentation experiment was performed using zebrafish embryos, as previously described [38, 49, 50]. Wild-type zebrafish (Danio rerio) were maintained in a fish tank at 28 °C and fed with dried brine shrimp (Artemia salina, San Francisco Bay Brand, San Francisco, CA, USA) three times daily. The zebrafish embryos were obtained through natural mating in mating cages. The obtained zebrafish embryos were transferred to a 90 mm culture dish containing 200 μL of E3-methylene blue (MB) solution, consisting of 0.001% MB, 0.17 mM KCl, 0.33 mM CaCl2, 0.33 mM MgSO4, and 5 mM NaCl, and incubated in an incubator set at 28 °C. At 24 h post-fertilization (hpf), the zebrafish embryos were dechorionated using pronase (Sigma-Aldrich, St. Louis, MO, USA). […] The 48-well plates were incubated in an incubator set at 28 °C for 48 h. At 76 hpf, the zebrafish larvae were mounted on a 1% methylcellulose block after anesthesia with tricaine methanesulfonate (Thermo Fisher Scientific, Waltham, MA, USA), and photographs of the zebrafish larvae were obtained using a SMZ745T stereoscopic microscope (Nikon, Tokyo, Japan). The pigmented areas of the zebrafish larvae were determined using the CS analyzer 3.0 image analysis software (ATTO, Tokyo, Japan).

[5] = kojic acid 20 mM, compound 8 0.025 mM, compound 13 0.025 and 0.05 mM, 76 hpf

For `Cc1ccc2nc(-c3ccc(O)cc3O)oc2c1` [Compound 3, 4-(6-Methylbenzo[d]oxazol-2-yl)benzene-1,3-diol], the “ABTS+• scavenging activity (% inhibition)” value [1] was 57%.

For `Oc1ccc(-c2nc3ccc(Cl)cc3o2)c(O)c1` [Compound 8, 4-(6-Chlorobenzo[d]oxazol-2-yl)benzene-1,3-diol], the “melanin content of zebrafish larvae, vs untreated control (100%)” value (zebrafish larvae [2]) was 35%, the “% tyrosinase activity in zebrafish larvae, vs untreated control (100%)” value [3] was 29% and the “ABTS+• scavenging activity (% inhibition)” value [1] was 64%. The “toxicity in zebrafish embryos” value (zebrafish larvae [4]; 0.05 mM) was “weak toxicity”, the “depigmentation effect on zebrafish larvae (photographs)” value (zebrafish larvae [4]; [5]) was “substantially higher depigmentation effects on zebrafish larvae than kojic acid; also recorded: strong potency at 0.025 mM, similar to 13 at 0.05 mM” and the “pigmentation area of zebrafish larvae (CS analyzer)” value (zebrafish larvae [4]; [5]) was “smallest pigmentation area”.

With `Cc1ccc2oc(-c3ccc(O)cc3O)nc2c1` [Compound 13, 4-(5-Methylbenzo[d]oxazol-2-yl)benzene-1,3-diol] the “ABTS+• scavenging activity (% inhibition)” value [1] was 54% and the “depigmentation effect on zebrafish larvae (photographs)” value (zebrafish larvae [4]; [5]) was “substantially higher depigmentation effects on zebrafish larvae than kojic acid; also recorded: significantly stronger depigmentation efficacy than kojic acid”.
